Results published in ChEMBL document CHEMBL3286258, “Medicinal chemistry of inhibitors of 11β-hydroxysteroid dehydrogenase type 1 (11β-HSD1)” (J Med Chem, 2014).

Tests used:
[1] = target: T1, 11-beta-hydroxysteroid dehydrogenase 1 (Mus musculus, UniProt P50172); assay: Inhibition of mouse 11beta-HSD1 expressed in HEK293 cells; format: cell-based
[2] = target: 11-beta-hydroxysteroid dehydrogenase 1 (Rattus norvegicus, UniProt P16232); assay: Inhibition of rat 11beta-HSD1 expressed in HEK293 cells; format: cell-based
[3] = target: Voltage-gated inwardly rectifying potassium channel KCNH2 (Homo sapiens, UniProt Q12809); assay: Inhibition of human ERG
Mus musculus [4] = assay: Reduction in plasma glucose level in ob/ob mouse at 200 mg/kg/day for 5 days measured after 5 days; format: functional; set-up: scale not given: the % may be the effect or the level left
[5] = Inhibition of N-terminal His-tagged full length dog 11beta-HSD1 assessed as inhibition of cortisone to cortisol conversion preincubated for 25 mins measured after 2 hrs by HTRF assay; set-up: species or system Canis lupus familiaris
[6] = target: T1, 11-beta-hydroxysteroid dehydrogenase 1; assay: Inhibition of mouse 11beta-HSD1
[7] = Oral bioavailability in mouse; format: ADME, organism-based; conditions: in vivo
[8] = Clearance in mouse; format: ADME, organism-based; conditions: in vivo
[9] = target: T2, 11-beta-hydroxysteroid dehydrogenase type 2 (Homo sapiens, UniProt P80365); assay: Inhibition of human 11beta-HSD2
T2 sequence (P80365 whole entry): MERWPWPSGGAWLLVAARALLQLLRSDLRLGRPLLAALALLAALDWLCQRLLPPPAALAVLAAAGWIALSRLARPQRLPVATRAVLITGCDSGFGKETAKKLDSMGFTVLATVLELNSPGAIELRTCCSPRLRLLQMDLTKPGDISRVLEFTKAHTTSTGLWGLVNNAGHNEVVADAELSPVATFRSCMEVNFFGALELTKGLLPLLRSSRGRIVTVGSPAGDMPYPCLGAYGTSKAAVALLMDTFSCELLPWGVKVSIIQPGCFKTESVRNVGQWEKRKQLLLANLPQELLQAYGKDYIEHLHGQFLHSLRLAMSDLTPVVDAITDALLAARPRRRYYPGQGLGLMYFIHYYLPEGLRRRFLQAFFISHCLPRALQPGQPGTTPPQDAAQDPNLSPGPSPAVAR

[10] = target: 11-beta-hydroxysteroid dehydrogenase 1 (Homo sapiens, UniProt P28845); assay: Inhibition of human 11beta-HSD1
Mus musculus [11] = assay: Reduction in fasting blood glucose level in high fat diet-fed STZ-induced diabetes mouse model at 30 mg/kg bid for 9 days relative to vehicle-treated control; format: functional; set-up: scale not given: the % may be the effect or the level left
[12] = target: T3, 11-beta-hydroxysteroid dehydrogenase type 2 (Mus musculus, UniProt P51661); assay: Inhibition of mouse 11beta-HSD2
T3 sequence (P51661 whole entry): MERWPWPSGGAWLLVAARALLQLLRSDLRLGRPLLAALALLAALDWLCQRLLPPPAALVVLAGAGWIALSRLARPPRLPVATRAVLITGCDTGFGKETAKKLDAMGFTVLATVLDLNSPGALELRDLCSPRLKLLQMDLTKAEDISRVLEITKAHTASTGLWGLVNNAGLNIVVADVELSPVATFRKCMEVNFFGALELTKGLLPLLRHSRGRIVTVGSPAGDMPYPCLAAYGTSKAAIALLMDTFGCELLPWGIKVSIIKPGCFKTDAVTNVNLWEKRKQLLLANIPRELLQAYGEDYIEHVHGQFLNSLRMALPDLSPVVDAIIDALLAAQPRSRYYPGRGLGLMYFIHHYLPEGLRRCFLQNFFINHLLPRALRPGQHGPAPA

Mus musculus [13] = assay: In vivo inhibition of 11beta-HSD1 in mouse assessed as inhibition of [3H]cortisone to [3H]cortisol conversion at 10 mg/kg, po measured after 1 hr relative to control; format: functional
Mus musculus [14] = assay: In vivo inhibition of 11beta-HSD1 in mouse assessed as inhibition of [3H]cortisone to [3H]cortisol conversion at 10 mg/kg, po measured after 4 hrs relative to control; format: functional
Mus musculus [15] = assay: Reduction in body weight in diet-induced obese mouse model at 20 mg/kg bid for 11 days relative to vehicle-treated control; format: functional; set-up: scale not given: the % may be the effect or the level left
Mus musculus [16] = assay: Reduction in cumulative food intake in diet-induced obese mouse model at 20 mg/kg bid for 11 days relative to vehicle-treated control; format: functional; set-up: scale not given: the % may be the effect or the level left
Mus musculus [17] = assay: Reduction in fasting blood glucose level in diet-induced obese mouse model at 20 mg/kg bid for 11 days relative to vehicle-treated control; format: functional; set-up: scale not given: the % may be the effect or the level left
Mus musculus [18] = assay: Reduction in postprandial blood glucose level in high fat diet-fed STZ-induced diabetes mouse model at 30 mg/kg bid for 9 days relative to vehicle-treated control; format: functional; set-up: scale not given: the % may be the effect or the level left
Mus musculus [19] = assay: Reduction in aortic total cholesterol accumulation in high fat diet-fed mouse model at 10 mg/kg/day for 8 weeks relative to vehicle-treated control; set-up: scale not given: the % may be the effect or the level left
Cynomolgus monkey [20] = assay: In vivo inhibition of 11beta-HSD1 in cynomolgus monkey assessed as inhibition of prednisone to prednisolone conversion at 0.1 to 3 mg/kg relative to control; format: functional, Macaca fascicularis; conditions: dose mg/kg 0.1-3
Cynomolgus monkey [21] = assay: Reduction in plasma insulin level in cynomolgus monkey at 0.1 to 3 mg/kg; format: functional, Macaca fascicularis; conditions: dose mg/kg 0.1-3
[22] = Tmax in healthy human by 14 day test; format: ADME, organism-based; conditions: in vivo
[23] = Elimination half life in healthy human by 14 day test; format: ADME, organism-based; conditions: in vivo, read-out: beta t1/2 (converted)
[24] = Clearance in healthy human by 14 day test; format: ADME, organism-based; conditions: in vivo
Homo sapiens [25] = organism: Homo sapiens; assay: Inhibition of prednisone to prednisolone conversion in healthy human at 15 mg qd relative to control; format: functional
Homo sapiens [26] = organism: Homo sapiens; assay: Reduction in 5alpha/5beta-tetrahydrocortisol to tetrahydrocortisone ratio in healthy human at 15 mg qd relative to control; format: functional
[27] = Drug excretion in healthy human urine; format: ADME, tissue-based; conditions: read-out: Drug excretion
Homo sapiens [28] = organism: Homo sapiens; assay: Reduction in hBA1c in type 2 diabetic patient; format: functional; set-up: scale not given: the % may be the effect or the level left
Homo sapiens [29] = organism: Homo sapiens; assay: Toxicity in type 2 diabetic patient assessed as increase in LDL-cholesterol level at 6 mg/day relative to placebo-control; format: organism-based; conditions: in vivo
Homo sapiens [30] = organism: Homo sapiens; assay: Toxicity in type 2 diabetic patient assessed as increase in circulating adrenal androgen at 6 mg/day relative to placebo-control; format: organism-based; conditions: in vivo
Homo sapiens [31] = organism: Homo sapiens; assay: Reduction in LDL-cholesterol in overweight/obese patient with hypertension at 7 mg relative to control; format: functional; set-up: scale not given: the % may be the effect or the level left
Homo sapiens [32] = organism: Homo sapiens; assay: Reduction in HDL-cholesterol in overweight/obese patient with hypertension at 7 mg relative to control; format: functional; set-up: scale not given: the % may be the effect or the level left
Homo sapiens [33] = organism: Homo sapiens; assay: Reduction in body weight in overweight/obese patient with hypertension at 7 mg relative to control; format: functional
Homo sapiens [34] = organism: Homo sapiens; assay: Toxicity in overweight/obese patient with hypertension assessed as increase in adrenal androgen level at 7 mg/day relative to control; format: organism-based; conditions: in vivo
Mus musculus [35] = organism: Mus musculus; assay: Reduction in liver corticosterone level in adrenalectomized mouse model; format: functional
Mus musculus [36] = assay: In vivo inhibition of 11beta-HSD1 in mouse assessed as inhibition of cortisone to cortisol conversion at 100 mg/kg relative to control; format: functional
Mus musculus [37] = assay: In vivo inhibition of 11beta-HSD1 in mouse assessed as inhibition of cortisone to cortisol conversion at 5 mg/kg relative to control; format: functional
[38] = Clearance in rat; format: ADME, organism-based; conditions: in vivo
[39] = Oral bioavailability in rat; format: ADME, organism-based; conditions: in vivo
[40] = Inhibition of cytochrome P450 (unknown origin); format: ADME, Homo sapiens
Mus musculus [41] = assay: Ex vivo inhibition of 11beta-HSD1 in mouse fat at 20 mg/kg relative to control; format: functional

T1 sequence (P50172 whole entry): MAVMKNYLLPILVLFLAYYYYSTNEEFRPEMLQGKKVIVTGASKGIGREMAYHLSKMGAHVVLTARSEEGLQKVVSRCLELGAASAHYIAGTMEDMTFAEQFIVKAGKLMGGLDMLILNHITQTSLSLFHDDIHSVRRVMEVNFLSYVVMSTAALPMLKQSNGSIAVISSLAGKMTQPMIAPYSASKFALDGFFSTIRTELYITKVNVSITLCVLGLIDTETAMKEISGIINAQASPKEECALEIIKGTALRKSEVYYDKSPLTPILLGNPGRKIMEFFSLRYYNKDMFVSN
Chain of 11-beta-hydroxysteroid dehydrogenase 1 (Rattus norvegicus, UniProt P16232) (P16232 whole entry): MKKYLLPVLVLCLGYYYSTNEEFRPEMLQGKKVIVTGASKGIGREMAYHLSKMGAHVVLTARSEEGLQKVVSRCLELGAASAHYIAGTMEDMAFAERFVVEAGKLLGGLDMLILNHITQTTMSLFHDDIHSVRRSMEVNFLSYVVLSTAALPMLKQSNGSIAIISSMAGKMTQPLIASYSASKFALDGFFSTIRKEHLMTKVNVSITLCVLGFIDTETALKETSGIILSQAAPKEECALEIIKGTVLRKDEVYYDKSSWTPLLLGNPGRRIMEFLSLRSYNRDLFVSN
Chain of Voltage-gated inwardly rectifying potassium channel KCNH2 (Q12809 whole entry): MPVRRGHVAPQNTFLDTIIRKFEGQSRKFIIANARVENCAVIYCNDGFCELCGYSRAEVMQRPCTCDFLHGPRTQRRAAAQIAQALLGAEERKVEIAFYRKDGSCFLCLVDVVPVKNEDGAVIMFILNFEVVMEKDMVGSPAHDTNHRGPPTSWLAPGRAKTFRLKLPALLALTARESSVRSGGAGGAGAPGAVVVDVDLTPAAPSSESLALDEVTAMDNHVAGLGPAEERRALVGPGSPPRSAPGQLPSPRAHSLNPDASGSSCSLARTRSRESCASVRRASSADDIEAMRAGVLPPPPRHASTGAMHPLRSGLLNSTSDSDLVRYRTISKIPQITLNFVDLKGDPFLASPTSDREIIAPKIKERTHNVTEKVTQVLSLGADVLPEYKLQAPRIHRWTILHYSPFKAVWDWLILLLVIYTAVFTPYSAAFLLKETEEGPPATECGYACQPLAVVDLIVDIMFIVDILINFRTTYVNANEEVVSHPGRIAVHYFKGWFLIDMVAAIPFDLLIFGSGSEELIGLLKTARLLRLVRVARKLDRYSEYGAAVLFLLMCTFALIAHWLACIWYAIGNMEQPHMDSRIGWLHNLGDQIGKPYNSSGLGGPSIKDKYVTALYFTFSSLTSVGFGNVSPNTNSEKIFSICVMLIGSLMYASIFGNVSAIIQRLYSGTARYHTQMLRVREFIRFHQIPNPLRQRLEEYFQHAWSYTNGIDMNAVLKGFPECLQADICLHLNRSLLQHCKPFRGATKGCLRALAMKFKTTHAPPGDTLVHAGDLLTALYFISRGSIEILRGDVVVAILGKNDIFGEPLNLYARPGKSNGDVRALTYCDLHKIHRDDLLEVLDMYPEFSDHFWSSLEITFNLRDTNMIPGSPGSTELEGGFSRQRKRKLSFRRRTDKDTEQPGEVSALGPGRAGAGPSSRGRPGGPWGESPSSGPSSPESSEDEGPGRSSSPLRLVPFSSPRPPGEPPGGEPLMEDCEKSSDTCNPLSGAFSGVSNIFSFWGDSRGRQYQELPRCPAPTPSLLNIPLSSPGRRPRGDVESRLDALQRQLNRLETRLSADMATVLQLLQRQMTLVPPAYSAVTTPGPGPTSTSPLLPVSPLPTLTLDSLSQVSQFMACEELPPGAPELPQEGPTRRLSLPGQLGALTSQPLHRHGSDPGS
Chain of 11-beta-hydroxysteroid dehydrogenase 1 (Homo sapiens, UniProt P28845) (P28845 whole entry): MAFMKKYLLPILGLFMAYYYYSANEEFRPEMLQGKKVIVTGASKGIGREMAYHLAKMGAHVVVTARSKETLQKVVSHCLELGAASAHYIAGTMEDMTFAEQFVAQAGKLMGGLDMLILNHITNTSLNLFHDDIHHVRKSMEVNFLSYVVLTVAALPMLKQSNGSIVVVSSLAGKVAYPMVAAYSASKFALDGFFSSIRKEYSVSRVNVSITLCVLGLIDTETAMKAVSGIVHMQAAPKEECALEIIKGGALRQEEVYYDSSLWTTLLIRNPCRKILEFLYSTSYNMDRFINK

CS(=O)(=O)NCCC(=O)N1CCC(c2cc(C(=O)N3CCC[C@H]4CCCC[C@H]43)cs2)CC1
IC50 [1]: 528 nM | IC50 [2]: 287 nM

O=C(CN1C(C(=O)c2ccccc2)=C(O)c2ccccc2S1(=O)=O)c1ccccc1
IC50 [3]: > 100000 nM | Activity (Mus musculus [4]): -27%

CSc1nc(N2C[C@@H]3[C@H](C2)[C@H]3C(=O)O)ccc1C(=O)NC12CC3CC(CC(C3)C1)C2
IC50 [5]: 120 nM

CC1(C)C(=O)N(c2cccc(S(C)(=O)=O)c2)C1c1cccc2nccnc12 (stereo unspecified)
IC50 [6]: 350 nM | bioavailability [7]: 22% | clearance [8]: 42 mL/min/kg

C1CCc2nnc(C34CC5CC(CC(C5)C3)C4)n2CC1
IC50 [9]: > 3000 nM | IC50 [10]: 8 nM | Activity (Mus musculus [11]): 37% | IC50 [12]: > 10000 nM | inhibition in vivo at 10 mg/kg (Mus musculus [13]): 59% | inhibition in vivo at 10 mg/kg (Mus musculus [14]): 17% | Activity (Mus musculus [15]): 7% | Activity (Mus musculus [16]): 12% | Activity (Mus musculus [17]): 15% | Activity (Mus musculus [18]): 37% | Activity (Mus musculus [19]): 84%

Cc1c(Cl)cccc1S(=O)(=O)N1CCCC[C@@H]1C(=O)N[C@H]1C2CC3CC1C[C@](O)(C3)C2
IC50 [6]: 15 nM | bioavailability [7]: 3% | clearance [8]: 130 mL/min/kg

CCN(CC)C(=O)Cc1csc(NS(=O)(=O)c2cccc(Cl)c2C)n1
IC50 [9]: > 10000 nM

CN(C(=O)c1csc(CNS(=O)(=O)c2cccc(Cl)c2)n1)C1CCCCCC1
IC50 [6]: 307 nM

N#Cc1ccc(-c2ccc(S(=O)(=O)Nc3cccc(N)n3)cc2)cc1
%max (Cynomolgus monkey [20]): 87% | %max (Cynomolgus monkey [21]): 60% | Tmax [22]: 1 h | half-life [23]: 30 h | clearance [24]: 16.7 mL/min | %max (Homo sapiens [25]): 37% | %max (Homo sapiens [26]): 26% | dose excreted [27]: < 1%

Cc1c(Cl)cccc1S(=O)(=O)Nc1nc(CC(=O)N2CCN(C)CC2)cs1
IC50 [9]: > 10000 nM | bioavailability [7]: 21%

F[C@H]1C[C@](c2ccc(Cl)cc2)(c2nnc(C3CC3)n2C2CC2)C1
Activity (Homo sapiens [28]): -0.3% | Activity (Homo sapiens [29]): 10.4% | Activity (Homo sapiens [30]): 20%

CCS(=O)(=O)CCCC12CCC(c3nnc(-c4ccccc4C(F)(F)F)n3C)(CC1)CC2 [MK-0736]
Activity (Homo sapiens [31]): -12.3% | Activity (Homo sapiens [32]): -6.3% | Activity (Homo sapiens [33]): -1.4 kg | fold change (FC) (Homo sapiens [34]): 2

COc1cc(C(=O)Nc2ccc(C(=O)N3CCCCC3)c(O)c2)cc(OC)c1OC
inhibition (INH) (Mus musculus [35]): 73%

CCN1CCC[C@@H]1C(=O)NC1C2CC3CC(C2)CC1C3 (stereo partly specified)
%max (Mus musculus [36]): 82% | %max (Mus musculus [37]): 50%

CC1CN(CC(=O)N[C@H]2C3CC4CC2C[C@](C(N)=O)(C4)C3)S(=O)(=O)N(c2c(Cl)cc(Cl)cc2Cl)C1 (stereo partly specified)
clearance [38]: 11.7 mL/min/kg | bioavailability [39]: 69% | IC50 [40]: > 100000 nM | inhibition in vivo at 20 mg/kg (Mus musculus [41]): 96%

Cc1c(Cl)cccc1S(=O)(=O)N1CCC[C@H](C(=O)N[C@H]2C[C@@H]3CC[C@@]2(C)C3(C)C)C1
IC50 [6]: 18 nM

Cn1c(-c2ccccc2)nnc1C12CC3CC(CC(C3)C1)C2 [FIG 1]
inhibition in vivo at 10 mg/kg (Mus musculus [13]): 85% | inhibition in vivo at 10 mg/kg (Mus musculus [14]): 47%
